According to article PMC8206078, “Identification of pyrogallol as a warhead in design of covalent inhibitors for the SARS-CoV-2 3CL protease” (Nature Communications, 2021):
Several values for one entry are separate records, joined by “and”; a condition that tells them apart may be missing. Equal values may be shown once. Read-outs that look alike come from different tables or passages of the source.

Tests used:
SARS-CoV-2 3CLpro [1] = target: T1, SARS-CoV-2 3CLpro (Severe acute respiratory syndrome coronavirus 2, UniProt P0DTD1); test: biochemical; assay type: biochemical
[2] = target: SARS-CoV-2 3CLpro / HEK293T lysate (Severe acute respiratory syndrome coronavirus 2, UniProt P0DTD1); assay type: binding
SARS-CoV-2 3CLpro [3] = target: T1, SARS-CoV-2 3CLpro; details: read-out: KI
SARS-CoV-2 3CLpro [4] = target: T1, SARS-CoV-2 3CLpro
[5] = read-out: Inhibition (%) @10 μM
[6] = 6.25 µM, read-out: inhibition ratio (%)
[7] = 25 µM, read-out: inhibition ratio (%)
[8] = 50 µM, read-out: inhibition ratio (%)

`O=c1cc(-c2ccc(O)cc2)oc2cc(O)cc(O)c12` [Apigenin] showed an inhibition at 10 µM (SARS-CoV-2 3CLpro [1]; [5]) of -1%.
Work on `COc1ccc(-c2cc(=O)c3c(O)cc(O)cc3o2)cc1O` [Diosmetin] yielded an inhibition at 10 µM (SARS-CoV-2 3CLpro [1]; [5]) of 11.3%.
Work on `O=C1C[C@@H](c2ccc(O)c(O)c2)Oc2cc(O)cc(O)c21` [Eriodictyol] yielded an inhibition at 10 µM (SARS-CoV-2 3CLpro [1]; [5]) of 34.5%.
For `COc1ccc(-c2coc3cc(O)ccc3c2=O)cc1` [Formononetin], the inhibition at 10 µM (SARS-CoV-2 3CLpro [1]; [5]) was 16%.
In the case of `O=c1c(-c2ccc(O)cc2)coc2cc(O)cc(O)c12` [Genistein], the inhibition at 10 µM (SARS-CoV-2 3CLpro [1]; [5]) is reported as 15%.
`O=c1c(-c2ccc(O)cc2)coc2cc(O[C@@H]3O[C@H](CO)[C@@H](O)[C@H](O)[C@H]3O)cc(O)c12` [Genistin] was tested, and the inhibition at 10 µM (SARS-CoV-2 3CLpro [1]; [5]) was 25.5%.
`COc1ccc([C@@H]2CC(=O)c3c(O)cc(O)cc3O2)cc1O` [Hesperetin] showed an inhibition at 10 µM (SARS-CoV-2 3CLpro [1]; [5]) of 13.8%.
Compound `COc1cc(-c2oc3cc(O)cc(O)c3c(=O)c2O)ccc1O` [Isorhamnetin] has an inhibition at 10 µM (SARS-CoV-2 3CLpro [1]; [5]) of -2.6%.
With `COc1ccc(-c2oc3cc(O)cc(O)c3c(=O)c2O)cc1` [Kaempferide] the inhibition at 10 µM (SARS-CoV-2 3CLpro [1]; [5]) was 8.1%.
In the case of `O=c1cc(-c2ccc(O)c(O)c2)oc2cc(O)cc(O)c12` [Luteolin], the “Inhibition (%) @10 μM” value (SARS-CoV-2 3CLpro [1]; 10 µM) is reported as -4.1%.
Compound `O=c1c(O)c(-c2ccc(O)c(O)c2)oc2cc(O)cc(O)c12` [Quercetin] has an inhibition at 10 µM (SARS-CoV-2 3CLpro [1]; [5]) of 41.3%.
`O=c1c(-c2ccc(O[C@@H]3O[C@H](CO)[C@@H](O)[C@H](O)[C@H]3O)cc2)coc2cc(O)cc(O)c12` [Sophoricoside] showed an inhibition at 10 µM (SARS-CoV-2 3CLpro [1]; [5]) of 10%.
In the case of `O=C1c2c(O)cc(O)cc2OC(c2ccc(O)c(O)c2)C1O` (stereo not shown) [Taxifolin], the inhibition at 10 µM (SARS-CoV-2 3CLpro [1]; [5]) is reported as 28%.
`COc1cc(O)c2c(=O)c(O)c(-c3cc(O)c(O)c(O)c3)oc2c1` [compound 3, 7-O-methyl myricetin] was tested, and the IC50 (SARS-CoV-2 3CLpro [1]; IC50 (µM)) was 0.31 µM, the inhibition at 0.15625 µM (SARS-CoV-2 3CLpro [1]; read-out: inhibition ratio (%)) was 28.3% and the inhibition at 0.3125 µM (SARS-CoV-2 3CLpro [1]; read-out: inhibition ratio (%)) was 43.1%. For the same compound, the inhibition at 5 µM (SARS-CoV-2 3CLpro [1]; read-out: inhibition ratio (%)) was 96.8%, the inhibition at 10 µM (SARS-CoV-2 3CLpro [1]; read-out: inhibition ratio (%)) was 98.5% and the inhibition at […] (SARS-CoV-2 3CLpro [1]; read-out: inhibition ratio (%)) was 89.4% and 96.2%.
`O=c1c(O)c(-c2cc(O)c(O)c(O)c2)oc2cc(OCC3CCCC3)cc(O)c12` [compound 6, 7-O-cyclopentylmethyl-myricetin] was tested, and the IC50 (SARS-CoV-2 3CLpro [1]; read-out: IC50) was 2.23 µM and 2.28 µM and 2.8 µM and 2.48 µM.
In the case of `COc1cc(O)c2c(c1)O[C@H](c1cc(O)c(O)c(O)c1)[C@@H](O)C2=O` [compound 7, 7-O-methyl dihydromyricetin], the IC50 (SARS-CoV-2 3CLpro [1]; IC50 (µM)) is reported as 270 nM (2×) and 240 nM, the inhibition at 0.0488281 µM (SARS-CoV-2 3CLpro [1]; read-out: inhibition ratio (%)) is reported as 8.15% and the inhibition at 0.0976562 µM (SARS-CoV-2 3CLpro [1]; read-out: inhibition ratio (%)) is reported as 25.7%. The inhibition at 0.390625 µM (SARS-CoV-2 3CLpro [1]; read-out: inhibition ratio (%)) was 54.6%, the inhibition at 0.78125 µM (SARS-CoV-2 3CLpro [1]; read-out: inhibition ratio (%)) was 84.2% and the inhibition at 1.5625 µM (SARS-CoV-2 3CLpro [1]; read-out: inhibition ratio (%)) was 97.1%. The inhibition at 3.125 µM (SARS-CoV-2 3CLpro [1]; read-out: inhibition ratio (%)) was 94.4%, the inhibition at 6.25 µM (SARS-CoV-2 3CLpro [1]; read-out: inhibition ratio (%)) was 98.2% and the inhibition at 25 µM (SARS-CoV-2 3CLpro [1]; read-out: inhibition ratio (%)) was 94.6%. The inhibition at 50 µM (SARS-CoV-2 3CLpro [1]; read-out: inhibition ratio (%)) was 95.6% and the inhibition at […] (SARS-CoV-2 3CLpro [1]; read-out: inhibition ratio (%)) was 36.2% and 99.3%.
Work on `O=c1c(O)c(-c2cc(O)c(O)c(O)c2)oc2cc(OP(=O)(Oc3ccccc3)Oc3ccccc3)cc(O)c12` [compound 9] yielded an inhibition at 0.78125 µM (SARS-CoV-2 3CLpro [1]; 0.78125 µM, read-out: inhibition ratio (%)) of 10.1%, an inhibition at 3.125 µM (SARS-CoV-2 3CLpro [1]; 3.125 µM, read-out: inhibition ratio (%)) of 57.7% and an inhibition at 6.25 µM (SARS-CoV-2 3CLpro [1]; [6]) of 78.1%. For the same compound, the inhibition at 25 µM (SARS-CoV-2 3CLpro [1]; [7]) was 96% and the inhibition at 50 µM (SARS-CoV-2 3CLpro [1]; [8]) was 99.4%.
In the case of `O=C1c2c(O)cc(OP(=O)(Oc3ccccc3)Oc3ccccc3)cc2O[C@H](c2cc(O)c(O)c(O)c2)[C@H]1O` [compound 10], the inhibition at 6.25 µM (SARS-CoV-2 3CLpro [1]; [6]) is reported as 81.5%, the inhibition at 25 µM (SARS-CoV-2 3CLpro [1]; [7]) is reported as 98.9% and the inhibition at 50 µM (SARS-CoV-2 3CLpro [1]; [8]) is reported as 98.6%. For the same compound, the inhibition at 100 µM (SARS-CoV-2 3CLpro [1]; 100 µM, read-out: inhibition ratio (%)) was 99.4% and the inhibition at 200 µM (SARS-CoV-2 3CLpro [1]; 200 µM, read-out: inhibition ratio (%)) was 99.6%.
With `O=C1c2c(O)cc(O)cc2O[C@H](c2cc(O)c(O)c(O)c2)[C@H]1O` [dihydromyricetin] the “Inhibition (%) @10 μM” value (SARS-CoV-2 3CLpro [1]; 10 µM) was greater than 90%, the inhibition at 10 µM (SARS-CoV-2 3CLpro [1]; [5]) was 93.8% and the inhibition at 0.3125 µM (SARS-CoV-2 3CLpro [1]; read-out: inhibition ratio (%)) was 13%. It also gave an inhibition at 0.390625 µM (SARS-CoV-2 3CLpro [1]; read-out: inhibition ratio (%)) of 15%, an inhibition at 0.625 µM (SARS-CoV-2 3CLpro [1]; read-out: inhibition ratio (%)) of 24.1% and an inhibition at 0.78125 µM (SARS-CoV-2 3CLpro [1]; read-out: inhibition ratio (%)) of 39.3%. The inhibition at 1.5625 µM (SARS-CoV-2 3CLpro [1]; read-out: inhibition ratio (%)) was 58.9%, the inhibition at 3.125 µM (SARS-CoV-2 3CLpro [1]; read-out: inhibition ratio (%)) was 82.7% and the inhibition at 5 µM (SARS-CoV-2 3CLpro [1]; read-out: inhibition ratio (%)) was 87.5%. The inhibition at 6.25 µM (SARS-CoV-2 3CLpro [1]; read-out: inhibition ratio (%)) was 95%, the inhibition at 10 µM (SARS-CoV-2 3CLpro [1]; read-out: inhibition ratio (%)) was 97.8% and the inhibition at 20 µM (SARS-CoV-2 3CLpro [1]; read-out: inhibition ratio (%)) was 99.5%. For the same compound, the inhibition at 40 µM (SARS-CoV-2 3CLpro [1]; read-out: inhibition ratio (%)) was 98.8% and the inhibition at […] (SARS-CoV-2 3CLpro [1]; read-out: inhibition ratio (%)) was 45.2% and 85% and 98.5%.
For `O=c1c(O)c(-c2cc(O)c(O)c(O)c2)oc2cc(O)cc(O)c12` [myricetin, 3,5,7,3′,4′,5′-hexahydroxyflavone], the “Inhibition (%) @10 μM” value (SARS-CoV-2 3CLpro [1]; 10 µM) was greater than 90%, the inhibition at 10 µM (SARS-CoV-2 3CLpro [1]; [5]) was 97.6% and the inhibition at 0.3125 µM (SARS-CoV-2 3CLpro [1]; read-out: inhibition ratio (%)) was 27.5%. It also gave an inhibition at 0.625 µM (SARS-CoV-2 3CLpro [1]; read-out: inhibition ratio (%)) of 44.1%, an inhibition at 5 µM (SARS-CoV-2 3CLpro [1]; read-out: inhibition ratio (%)) of 96.1% and an inhibition at 10 µM (SARS-CoV-2 3CLpro [1]; read-out: inhibition ratio (%)) of 98.2%. The inhibition at 20 µM (SARS-CoV-2 3CLpro [1]; read-out: inhibition ratio (%)) was 97.9%, the inhibition at 40 µM (SARS-CoV-2 3CLpro [1]; read-out: inhibition ratio (%)) was 98.8% and the inhibition at […] (SARS-CoV-2 3CLpro [1]; read-out: inhibition ratio (%)) was 65.6% and 85.5%. For the same compound, the “fluorescent labeling in mixture of HEK293T lysate and recombinant 3CLpro” value [2] was “only significantly reduced the fluorescent labeling of the protease”, the “fluorescent labeling of recombinant SARS-CoV-2 3CLpro by maleimide probe” value [2] was “completely block” and the KI (inactivation) (SARS-CoV-2 3CLpro [3]) was 16.9 µM and 15.2 µM and 15 µM. The “increase in molecular weight of the protease (covalent labeling)” value (SARS-CoV-2 3CLpro [4]) was 316 Da.
In the case of (+)-Catechin, the “Inhibition (%) @10 μM” value (SARS-CoV-2 3CLpro [1]) is reported as 14.0%.
With Biochanin A the “Inhibition (%) @10 μM” value (SARS-CoV-2 3CLpro [1]) was 5.0%.
